Patent US20220251158A1, “INTERMEDIATE FILAMENT-DERIVED PEPTIDES AND THEIR USES” (UNIVERSITAT DE LLEIDA, priority 2019, published 2022)

tested on: different populations of leukocytes; assay: Annexin V expression in leukocytes with 9 amino acid core peptides; format: cell-based; conditions: 9 amino acid peptide added directly to cell culture
Procedure: For cell death and apoptosis analysis, 400.000 of primary cells or 100.000 of cell line cells were incubated in 96-well plates in 200 μL of complete culture medium for 24 h at 37° C. and 5% CO2 in the absence or presence of 55 μM of different peptides. After 1 hour, 24 hours or 48 hours, apoptosis was measured by CFBlue Annexin V Apoptosis Detection Kit with PI (ANXVKCFB-100T, Immunostep), following kit protocol. For cleaved caspasa-3 intracellular staining, mononuclear cells were permeabilised following the manufacturer's instructions of the FoxP3 Staining Buffer Set (00-5523-00, eBioscience) and the cleaved caspasa-3-Pacific Blue (8788S, Cell Signalling) was used for staining. Cell suspensions were analysed by flow cytometry using FACS CANTO II instrumentation (BD, Biosciences, San Jose, Calif.) and Flowjo (version 8.7) software.

Sequence | induction of the expression of annexin V
VKMALDVEI (Variant of core sequence - Des9) | not to be positive
VKMALDIEI (Variant of core sequence - Per9) | not to be positive
VKLALDIEI (Variant of core sequence - GFAP9) | not to be positive
